From US12162863B2, “Modulators of stimulator of interferon genes (STING)” (RYVU THERAPEUTICS S.A., priority 2018, dated 2024)

Tests used:
[1] = system: interferon regulatory factor (IRF) pathway in THP-1 dual cells; experiment: THP-1 Dual Reporter Assay, IRF pathway (luciferase reporter); type: cell-based; settings: Homo sapiens, THP1-Dual, 18 h of stimulation, luminescence
Experimental: (§1) THP-1 Dual Reporter Assay
(§2) Compounds of the present invention were tested for their activity using THP-1 dual cells (Invivogen, cat no. thpd-nfis) allowing for simultaneous study of NF-κB pathway and the interferon regulatory factor (IRF) pathway. THP-1 dual cells contain luciferase reporter gene under the control of an ISG54 (interferon-stimulated gene) minimal promoter in conjunction with five interferon-stimulated response elements and a secreted embryonic alkaline phosphatase reporter gene under the control an IFN (interferon)-β minimal promoter fused to five copies of the NF-κB consensus transcriptional response element with three copies of the c-Rel binding site. Following 18 h of stimulation with STING agonist, medium was collected and transferred onto fresh cell culture plate. To verify activity of the IRF pathway, luminescence activity was measured with standard laboratory plate reader immediately after addition 10 μl of the medium to 50 μl of luminescence reagent (Invivogen, cat. No. rep-qlc2). To verify activity of NF-κB pathway, 20 μl of the medium was mixed with 80 μl of a detection medium (Invivogen, cat. No. rep-qb2) and incubated for 2 hours at 37° C. in a humidified atmosphere containing 5% CO2. Next, absorbance at 630 nm was recorded using standard laboratory plate reader.

[2] = system: NF-κB pathway in THP-1 dual cells; experiment: THP-1 Dual Reporter Assay, NF-κB pathway (SEAP reporter); type: cell-based; settings: Homo sapiens, THP1-Dual, 18 h of stimulation, absorbance at 630 nm, read-out: THP1 Dual EC50 (μM) NFkB
Experimental: as §1, §2

human STING = human STING (Homo sapiens, UniProt Q86WV6); experiment: Fluorescence Thermal Shift assay; type: binding; settings: 50 μM compound; STING 0.1 mg/ml; 20 minutes preincubation; read-out: [hSTING] FTS, ΔTm [° C.] for 50 μM
Experimental: Fluorescence Thermal Shift Assay Compounds of the present invention were tested for binding to human STING in Fluorescence Thermal Shift assay. STING was preincubated with the compounds for 20 minutes in 50 mM Hepes, 150 mM NaCl, pH 7.5 in 16 μl volume, following by adding 4 μl of SyproOrange dye dilution (ThermoFisher, cat no. S-6651). Final STING concentration was 0.1 mg/ml. Thermal unfolding was performed in Real-Time PCR QuantStudio 6 Flex System (Applied Biosystems), from 25 to 99° C., with continuous ramp mode and ramp rate 0.033° C./s. The data were analyzed using Protein Thermal Shift Software (ThermoFisher). […] For example, ΔTm [° C.] of FTS assay for following examples are: […]

human STING, sequence (Q86WV6 whole entry H232R): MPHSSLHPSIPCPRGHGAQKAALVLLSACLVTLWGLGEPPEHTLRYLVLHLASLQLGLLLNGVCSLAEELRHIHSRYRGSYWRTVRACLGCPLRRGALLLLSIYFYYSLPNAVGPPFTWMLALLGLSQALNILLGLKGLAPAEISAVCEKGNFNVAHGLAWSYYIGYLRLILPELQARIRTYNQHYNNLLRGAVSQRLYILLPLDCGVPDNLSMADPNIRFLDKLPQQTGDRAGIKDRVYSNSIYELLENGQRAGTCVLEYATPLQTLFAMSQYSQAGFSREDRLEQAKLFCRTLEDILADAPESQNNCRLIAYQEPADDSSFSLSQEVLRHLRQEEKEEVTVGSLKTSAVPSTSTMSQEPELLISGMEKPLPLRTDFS

Row | EC50 [1] | EC50 [2] | ΔTm at 50 µM (human STING) | SMILES
1 | ≤ 10 µM | ≤ 10 µM | > 2.5 °C | CN1CCN(c2cc3occ(CN(CCCc4cccnc4)Cc4ccncc4)c(=O)c3cc2F)CC1 [Example 58, 6-fluoro-7-(4-methylpiperazin-1-yl)-3-({[3-(pyridin-3-yl)propyl](pyridin-4-ylmethyl)amino}methyl)-4H-chromen-4-one]
2 | ≥ 20 µM | ≥ 20 µM | < 2.5 °C | CCn1cc(CN(CCCn2ccnc2)Cc2ccncc2)c(=O)c2ccccc21 [Example 43, 1-ethyl-3-({[3-(1H-imidazol-1-yl)propyl](pyridin-4-ylmethyl)amino}methyl)-1,4-dihydroquinolin-4-one]
3 | 10 to 20 µM | ≥ 20 µM | < 2.5 °C | COc1cc(CN(CCCn2ccnc2)Cc2cn(C)c3ccccc3c2=O)ccn1 [Example 44, 3-({[3-(1H-imidazol-1-yl)propyl][(2-methoxypyridin-4-yl)methyl]amino}methyl)-1-methyl-1,4-dihydroquinolin-4-one]
4 | ≤ 10 µM | 10 to 20 µM | > 2.5 °C | Cc1ccc2c(=O)c(CN(CCCn3cnc4c(=O)[nH]cnc43)Cc3ccncc3)c(C)oc2c1C [Example 75, 9-(3-{[(pyridin-4-yl)methyl][(2,7,8-trimethyl-4-oxo-4H-chromen-3-yl)methyl]amino}propyl)-6,9-dihydro-1H-purin-6-one]
5 | ≤ 10 µM | ≤ 10 µM | > 2.5 °C | Cc1oc2cc(N3CCOCC3)c(F)cc2c(=O)c1CN(CCCc1cccnc1)Cc1ccncc1 [Example 70, 6-fluoro-2-methyl-7-(morpholin-4-yl)-3-({[3-(pyridin-3-yl)propyl][(pyridin-4-yl)methyl]amino}methyl)-4H-chromen-4-one]
6 | ≥ 20 µM | ≥ 20 µM | < 2.5 °C | CN(C)c1ccc(CCCN(Cc2ccncc2)Cc2coc3c(ccc4ccccc43)c2=O)cn1 [Example 60, 3-[({3-[6-(dimethylamino)pyridin-3-yl]propyl}[(pyridin-4-yl)methyl]amino)methyl]-4H-benzo[h]chromen-4-one]
7 | ≤ 10 µM | ≤ 10 µM | > 2.5 °C | Cc1oc2cc(N3CCNCC3)c(F)cc2c(=O)c1CN(CCCc1cccnc1)Cc1ccncc1 [Example 69, 6-fluoro-2-methyl-7-(piperazin-1-yl)-3-({[3-(pyridin-3-yl)propyl][(pyridin-4-yl)methyl]amino}methyl)-4H-chromen-4-one]
8 | ≤ 10 µM | ≤ 10 µM | > 2.5 °C | COc1ccc2ccc3c(=O)c(CN(CCCn4cnc5ccccc54)Cc4ccncc4)coc3c2c1 [Example 62, 3-({[3-(1H-1,3-benzodiazol-1-yl)propyl][(pyridin-4-yl)methyl]amino}methyl)-9-methoxy-4H-benzo[h]chromen-4-one]
9 | 10 to 20 µM | ≥ 20 µM | < 2.5 °C | O=c1c(CN(CCCn2ccnn2)Cc2ccncc2)coc2cc(Br)ccc12 [Example 22, 7-bromo-3-{[(pyridin-4-ylmethyl)[3-(1H1,2,3-triazol-1-yl)propyl]amino]methyl}-4H-chromen-4-one]
10 | ≤ 10 µM | ≤ 10 µM | > 2.5 °C | Cc1cc(CN(CCCn2cnc3ccccc32)Cc2cn(C)c3ccccc3c2=O)ccn1 [Example 100, 3-({[3-(1H-1,3-benzodiazol-1-yl)propyl][(2-methylpyridin-4-yl)methyl]amino}methyl)-1-methyl-1,4-dihydroquinolin-4-one]
11 | ≤ 10 µM | ≤ 10 µM | > 2.5 °C | COc1ccc2c(=O)c(CN(CCCn3ccnc3)Cc3ccncc3)coc2c1 [Example 9, 3-({[3-(1H-imidazol-1-yl)propyl](pyridin-4-ylmethyl)amino}methyl)-7-methoxy-4H-chromen-4-one]
12 | 10 to 20 µM | 10 to 20 µM | > 2.5 °C | Cc1ccc2c(=O)c(CN(CCCn3ccnn3)Cc3ccncc3)coc2c1C [Example 14, 7,8-dimethyl-3-{[(pyridin-4-ylmethyl)[3-(1H-1,2,3-triazol-1-yl)propyl]amino]methyl}-4H-chromen-4-one]
13 | ≤ 10 µM | ≤ 10 µM | > 2.5 °C | COc1cc(CN(CCCn2ccnc2)Cc2coc3c(ccc4ccccc43)c2=O)ccn1 [Example 30, 3-({[3-(1H-imidazol-1-yl)propyl][(2-methoxypyridin-4-yl)methyl]amino}methyl)-4H-benzo[h]chromen-4-one]
14 | ≤ 10 µM | 10 to 20 µM | > 2.5 °C | O=c1c(CN(CCCn2ccnc2)Cc2ccncc2)coc2cc(-c3cc[nH]n3)ccc12 [Example 71, 3-({[3-(1H-imidazol-1-yl)propyl](pyridin-4-ylmethyl)amino}methyl)-7-(1H-pyrazol-3-yl)-4H-chromen-4-one]
15 | ≥ 20 µM | ≥ 20 µM | < 2.5 °C | O=c1c(CN(CCCn2cnc3ccccc32)Cc2ccncc2F)coc2c1ccc1ccccc12 [Example 85, 3-({[3-(1H-1,3-benzodiazol-1-yl)propyl][(3-fluoropyridin-4-yl)methyl]amino}methyl)-4H-benzo[h]chromen-4-one]
16 | ≤ 10 µM | ≤ 10 µM | > 2.5 °C | COc1ccc(-c2ccc3c(=O)c(CN(CCCn4ccnc4)Cc4ccncc4)c(C)oc3c2)cc1 [Example 56, 3-({[3-(1H-imidazol-1-yl)propyl][(pyridin-4-yl)methyl]amino}methyl)-7-(4-methoxyphenyl)-2-methyl-4H-chromen-4-one]
17 | ≥ 20 µM | ≥ 20 µM |  | COc1cc(CN(CCCn2cnc3ccccc32)Cc2cnc3ccccn3c2=O)ccn1 [Example 86, 3-({[3-(1H-1,3-benzodiazol-1-yl)propyl][(2-methoxypyridin-4-yl)methyl]amino}methyl)-4H-pyrido[1,2-a]pyrimidin-4-one]
18 | ≤ 10 µM | ≤ 10 µM | > 2.5 °C | COc1cc(CN(CCCn2cnc3ccccc32)Cc2coc3c(ccc4ccccc43)c2=O)ccn1 [Example 53, 3-({[3-(1H-1,3-benzodiazol-1-yl)propyl][(2-methoxypyridin-4-yl)methyl]amino}methyl)-4H-benzo[h]chromen-4-one]
19 | ≥ 20 µM | ≥ 20 µM |  | N#Cc1ccc2c(=O)c(CN(CCCn3ccnc3)Cc3ccncc3)coc2c1 [Example 24, 3-({[3-(1H-imidazol-1-yl)propyl][(pyridin-4-yl)methyl]amino}methyl)-4-oxo-4H-chromene-7-carbonitrile]
20 | ≥ 20 µM | ≥ 20 µM |  | COc1cc(CN(CCCn2cnc3ccccc32)Cc2c(C)oc3c(ccc4ccccc43)c2=O)ccn1 [Example 87, 3-({[3-(1H-1,3-benzodiazol-1-yl)propyl][(2-methoxypyridin-4-yl)methyl]amino}methyl)-2-methyl-4H-benzo[h]chromen-4-one]
21 | ≥ 20 µM | ≥ 20 µM |  | O=c1c(CN(CCCn2ccnc2)Cc2ccncc2)cnc2ccccn12 [Example 35, 3-({[3-(1H-imidazol-1-yl)propyl][(pyridin-4-yl)methyl]amino}methyl)-4H-pyrido[1,2-a]pyrimidin-4-one]
22 | ≥ 20 µM | ≥ 20 µM |  | COc1cc(CN(CCCc2cncc3[nH]ncc23)Cc2c(C)oc3cc(Br)c(F)cc3c2=O)ccn1 [Example 92, 7-bromo-6-fluoro-3-({[(2-methoxypyridin-4-yl)methyl](3-{1H-pyrazolo[3,4-c]pyridin-4-yl}propyl)amino}methyl)-2-methyl-4H-chromen-4-one]
